Measured values as given in patent US6423508B1, “Polynucleotide sequences of human EDG-1c” (SmithKline Beecham Corporation, priority 1998, dated 2002).
Read-outs that look alike come from different tables or passages of the source.

Columns and labels:
human EDG-1c receptor [1] = biological target: T1, human EDG-1c receptor (Homo sapiens, UniProt P21453); experiment: Calcium mobilization in RBL 2H3 cells stably transfected with human EDG-1c receptor (FLIPR); format: cell-based
T1 construct: expressed in transfected cells
T1 sequence (P21453 whole entry): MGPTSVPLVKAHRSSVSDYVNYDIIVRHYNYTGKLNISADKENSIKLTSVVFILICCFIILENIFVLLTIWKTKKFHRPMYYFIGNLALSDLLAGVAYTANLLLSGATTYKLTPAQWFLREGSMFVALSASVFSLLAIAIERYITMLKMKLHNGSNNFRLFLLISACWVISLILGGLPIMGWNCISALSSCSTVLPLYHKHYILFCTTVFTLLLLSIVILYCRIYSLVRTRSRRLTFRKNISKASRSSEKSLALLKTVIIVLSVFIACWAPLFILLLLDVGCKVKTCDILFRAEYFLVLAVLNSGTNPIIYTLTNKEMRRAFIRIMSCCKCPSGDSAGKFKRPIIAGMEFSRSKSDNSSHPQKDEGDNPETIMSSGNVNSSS
Description: (§1) A number of cell lines were examined to identify one that would not respond to S-1-P through an endogenous receptor. […] Stable cell lines of the EDG1-c receptor were prepared in RBL 2H3 cell line. The expression of functionally active clones were followed using Fluorescent imaging plate reader (FLIPR).

[2] = test system: rat neonatal cardiomyocytes; experiment: Cellular hypertrophy in rat neonatal cardiomyocytes in culture; format: cell-based
Description: […] was tested in its ability to induce hypertrophy in an in vitro neonatal cardiomyocyte model. The assessment of cardiomyocyte hypertrophy is measured using four different parameters: protein synthesis (tritiated phenylalanine incorporation and protein content increase), tritiated thymidine incorporation (evaluation of fibroblast contamination), Brain Natriuretic Peptide (BNP) release and morphological parameters. Phenylephrine (PE) at 100 μM concentration is used as internal control experiments. […] Cardiomyocytes in culture display features of myocyte hypertrophy observed in vivo, such as changes in morphology (vizualised using light microscopy after staining with crystal violet), protein content, and pattern of gene expression.

human EDG-1c receptor [3] = biological target: T1, human EDG-1c receptor; experiment: S-1-P-induced FUS1-LacZ reporter gene expression in yeast expressing human EDG-1c; format: cell-based; conditions: yeast FUS1-LacZ cells expressing human EDG-1c, FIG. 5
Excerpt: The yeast strain(s) used contain mutations in genes in the pheromone response pathway, e.g., (i) deletion of the STE2 or STE3 gene encoding the endogenous G-protein coupled pheromone receptors; (ii) deletion of the FAR1 gene encoding a protein that normally associates with cyclin-dependent kinases leading to cell cycle arrest; and (iii) construction of reporter genes fused to the FUS1 gene promoter (where FUS1 encodes a membrane-anchored glycoprotein required for cell fusion). The downstream reporter (FUS1-LacZ) permits a colorimetric or fluorimetric readout in response to ligand.

[4] = test system: untransfected HEK 293 cells (endogenous receptors that respond to S-1-P); experiment: S-1-P-induced Ca2+ mobilization in untransfected HEK 293 cells (FLIPR); format: cell-based; conditions: FIG. 3
Excerpt: The data were generated with the 96 well Fluorescent Imaging Plate Reader (FLIPR). Each point is the mean of 6-8 wells read on FLIPR.

[5] = test system: isolated perfused rabbit heart; experiment: Functional effects on isolated perfused rabbit heart; conditions: 10 nM
Description: The functional effects of […] have been examined in isolated perfused rabbit heart. […] An increased in AoP (aortic pressure), reflecting a vasoconstrictor effect was observed, i.e., about 30% of increase at 5 min of treatment compared to the vehicle (methanol 0.001%).

[6] = test system: endogenous receptors of RBL 2H3 cells; experiment: Responses of control ligands of endogenous receptors in RBL 2H3 EDG-1c cells (calcium mobilization, FLIPR); format: cell-based; conditions: FIG. 8
Description: as §1

lysophosphatidic acid
calcium mobilization response of RBL 2H3 EDG-1c cells (human EDG-1c receptor [1]; best clones, FIG. 8): did not respond

CCCCCCCCCCCCC/C=C/[C@@H](O)[C@@H](N)COP(=O)(O)O [S-1-P, sphingosine 1-phosphate]
cellular hypertrophy (increase of protein content, phenylalanine incorporation and BNP secretion to control cell values) ([2]; 10 nM, 100 nM and 1 μM (n=3), each concentration): induced a cellular hypertrophy
increase of phenylalanine incorporation to the control cell values ([2]; 1 μM (n=3)): 30.1%±9.2
increase of protein content to the control cell values ([2]; 1 μM (n=3)): 35.6%±6.3
increase of thymidine incorporation to the control cell values ([2]; 1 μM (n=3)): 11.4%±1.8
BNP secretion vs. control ([2]; S-1-P treated cardiomyocyte vs. control): four fold higher
expression of beta-galactosidase (FUS1-LacZ reporter response) (human EDG-1c receptor [3]): receptor-dependent response
calcium mobilization response [4]: robust calcium mobilization response
LVEDP (left ventricular end-diastolic pressure) [5]: marked reduction
increase in AoP (aortic pressure), vasoconstrictor effect ([5]; at 5 min of treatment, compared to the vehicle (methanol 0.001%)): about 30%
inotropic effect (pressure value) ([5]; at 10 min of drug administration, controls 96.09±6 mm Hg): 84.7±6.3 mm Hg
EC50 (human EDG-1c receptor [1]; several RBL 2H3 EDG1-c clones, FIG. 7, read-out: EC50, calcium mobilization, best clones): 10 to 20 nM

CCCCC/C=C\C\C=C/C=C/C=C/[C@@H](SC[C@H](N)C(=O)NCC(=O)O)[C@@H](O)CCCC(=O)O [leukotriene D4]
EC50 of endogenous-receptor ligands [6]: expected EC50 values

CCCCCCCCCCCCCCCC(O)C(N)COP(=O)(O)O (stereo not drawn) [dihydro-S-1-P, di-hydro sphingosine 1-phosphate]
EC50 (human EDG-1c receptor [1]): 10 to 20 nM

C[C@@H]1O[C@H](C[N+](C)(C)C)C[C@H]1O [Muscarine]
response of RBL 2H3 EDG-1c cells to control ligand [6]: did not respond

sphingosine phosphorylcholine
EC50, calcium mobilization through the EDG1-c receptor (in words) (human EDG-1c receptor [1]; best clones, FIG. 8): in the uM range
calcium mobilization response of RBL 2H3 EDG-1c cells (human EDG-1c receptor [1]; best clones, FIG. 8): weakly

Nc1ncnc2c1ncn2[C@@H]1O[C@H](COP(=O)(O)OP(=O)(O)OP(=O)(O)O)[C@@H](O)[C@H]1O [ATP]
EC50 of endogenous-receptor ligands [6]: expected EC50 values
